Results published in BindingDB's records for doi:10.1021/jm00112a042 (Zambeletti Research Laboratories, 1991).
“And” between values parts separate entries of the source, which are not always exact repeats. Equal values may be shown once.

Experiment: Affinity for opioid receptor delta sites
`O=C(Cc1ccc(Cl)c(Cl)c1)N1CCc2sccc2C1CN1CCCC1` (stereo unspecified) gave a Ki of 153 nM.
In the case of `O=C(Cc1ccc(Cl)c(Cl)c1)N1CCc2sccc2C1CN1CCCCC1` (stereo unspecified), the Ki is reported as > 1000 nM.
`O=C(Cc1ccc(Cl)c(Cl)c1)N1CCc2ccsc2C1CN1CCCC1` (stereo unspecified) showed a Ki of 362 nM.
`O=C(Cc1ccc(Cl)c(Cl)c1)N1CCCC[C@H]1CN1CCCC1` [2-(3,4-Dichloro-phenyl)-1-(2-pyrrolidin-1-ylmethyl-piperidin-1-yl)-ethanone] gave a Ki of 1000 nM.
With `O=C(Cc1ccc(Cl)c(Cl)c1)N1CCc2[nH]c3ccccc3c2C1CN1CCCC1` (stereo unspecified) the Ki was > 1000 nM.
In the case of `O=C(Cc1ccc(C(F)(F)F)cc1)N1CCc2sccc2C1CN1CCCCC1` (stereo unspecified), the Ki is reported as > 1000 nM.

Experiment: Binding affinity was measured on opioid receptor delta sites.
For `O=C(Cc1ccc(Cl)c(Cl)c1)N1CCc2c([nH]c3ccccc23)C1CN1CCCC1` (stereo unspecified), the Ki was > 1000 nM.
In the case of `O=C(Cc1ccc(C(F)(F)F)cc1)N1CCc2ccccc2C1CN1CCCCC1` (stereo unspecified), the Ki is reported as > 1000 nM.
For `O=C(Cc1ccc(C(F)(F)F)cc1)N1CCCC[C@H]1CN1CCCC1` [1-(2-Pyrrolidin-1-ylmethyl-piperidin-1-yl)-2-(4-trifluoromethyl-phenyl)-ethanone], the Ki was 1000 nM.
With `O=C(Cc1ccc(C(F)(F)F)cc1)N1CCc2ccccc2[C@H]1CN1CCCC1` the Ki was > 1000 nM and 149 nM.
For `CN(C)CC1c2ccccc2CCN1C(=O)Cc1ccc(Cl)c(Cl)c1` (stereo unspecified), the Ki was 746 nM.
